In patent US20190111040A1, “IN VIVO AMELIORATION OF ENDOGENOUS ANTI-TUMOR AUTOANTIBODIES TARGETING SURFACE TUMOR ANTIGENS VIA LOW-DOSE P4N” (THE JOHNS HOPKINS UNIVERSITY, priority 2016, published 2019):
Where a name gives a salt, the structure may show the parent alone.

Columns and labels:
CT26 tumors = assay: P4N treatments in vivo, CT-26 tumors in nude mice; parameters: species or system nude mice (BALB/c/nu); conditions: immunodeficient nude mice, one intratumoral injection of 2.5 mg/kg or 5 mg/kg
Experimental: P4N treatments in vivo. BALB/c or BALB/c/nu mice (6 week old) were inoculated subcutaneously with 1×10^6 CT-26 cells in 100 μl PBS. When the average tumor mass reached 50 mm^3, the animals were treated with 2.5 mg/kg or 5 mg/kg of P4N in one intratumoral injection. Subsequently, the tumor volumes were measured using a caliper every 2 days, and the volumes were calculated using the following formula: volume (mm^3)=length×width×height. Before sacrifice, the sera of the mice were collected for experimental use.

CT-26 cells = assay: Binding of anti-sera to CT-26 tumor tissue and cell surface antigens; parameters: species or system mouse; conditions: flow cytometry, FIG. 15
Experimental: FIG. 15 is a graph showing the affinities of anti-sera against CT-26 cells after different lengths of incubation. Tumor antigens on the surface of CT26 cells were indirectly probed with P4N and PBS anti-sera and FITC-conjugated goat anti-mouse IgG antibody. The specific fluorescent activities were measured by flow cytometry.
Sections of CT-26 tumors from untreated mice were incubated with a 200-fold dilution of normal sera, PBS anti-sera or P4N anti-sera at 4° C. overnight. Sequentially, the sections were recognized using an HRP-conjugated anti-mouse IgG antibody (1:1500 dilution; Santa Cruz Biotechnology), and then developed, counterstained and photographed as described above.
Immunofluorescence analysis of cell surface tumor antigens. CT-26 cells were seeded on glass cover slides, and fixed with 4% (w/w) paraformaldehyde The fixed cells were then incubated with normal sera, PBS anti-sera or P4N anti-sera for 1 h and detected with secondary antibodies conjugated to Alexa Fluor 568 (Molecular Probes, Eugene, USA). Alexa Fluor 488-conjugated Concanavalin A (ConA; Molecular Probes) and DAPI (Molecular Probes) were used to label the plasma membrane and nucleus. The images of tumor antigens recognized by the anti-sera were photographed at a 400× magnification using a Zeiss LSM 510 META confocal microscope (Carl Zeiss, Jena, Germany).

mouse splenocytes = assay: Effect of P4N on B cell lineage in mouse splenocytes in vitro; type: cell-based
Experimental: The effect of P4N on changes in B cell lineage in vitro. Single cell suspensions of mouse splenocytes were obtained by grinding the spleens from healthy mice. The suspended splenocytes were treated with or without 0.1 or 0.2 μM of P4N for 48 h, and the percentage of naïve B cells, activated B cells, B1 cells or Breg cells were measured after staining with the following fluorochrome conjugates using flow cytometry (BD Biosciences): anti-CD19-FITC, anti-CD-23-APC, anti-CD-38-APC, anti-CD5-PE or anti-CD1d-Alexa 647 (BioLegend, San Diego, Calif.). The cell types were defined as follows: naïve B cells (CD19+CD23+), activated B cells (CD19+CD38+), B1 cells (CD19+CD5+) and Breg cells (CD19+CD5+CD1d+). The indices of different types of B cell proliferation were calculated as follows: (the number of splenocytes×the percentage of each B cell population in treated splenocytes)/(the number of splenocytes×the percentage of each B cell population in untreated splenocytes).

[1] = In vivo effects of P4N on antibody production and B cell differentiation (EGFP immunization); parameters: species or system BALB/c mice
Experimental: In vivo effects of P4N on antibody production and B cell differentiation. Mice were immunized and boosted with 100 μg EGFP in 100 μl of PBS by intraperitoneal injection once every week and simultaneously treated with or without 5 mg/kg P4N once or three times per week. Blood samples were collected from the retro-orbital plexus of the mice every week. The titers of anti-EGFP antibodies in sera were measured by enzyme-linked immunosorbent assay (ELISA). Briefly, each well of a microtiter plate (Nunc, Wiesbaden, Germany) was coated with 100 ng of rEGFP in 100 μl of PBS. The sera were 6400× diluted by PBS and added to the antigen-coated wells, and their titers were measured as described above. The isotypes of anti-EGFP antibodies in sera were also measured as described previously.
The splenocytes of P4N-treated or untreated mice were harvested and probed with anti-CD19-FITC, anti-CD23-APC, anti-CD38-APC, anti-CD27-APC, anti-CD138-APC, anti-CD5-PE or anti-CD1d-Alexa 647 (BioLegend) antibodies and analyzed by flow cytometry (BD Biosciences). The definitions of the cell types were as described above, except for memory B cells (CD19+CD27+) and plasma cells (CD19+CD138+). The indices of different types of B cell proliferation were calculated as follows: (the number of splenocytes×the percentage of each B cell population in treated splenocytes)/(the number of splenocytes×the percentage of each B cell population in untreated splenocytes).

Raji or OKT3 cells = assay: Cell proliferation assay with THP-1-conditioned media; type: cell-based; conditions: conditioned medium from THP-1 cells treated with P4N, 48 h, MTT
Experimental: FIGS. 5A-5F depict the expression of Activin A/BAFF induced by P4N treatments. (A) P4N induced Activin A or BAFF expression in human PBMCs as determined by RT-PCR. S1-S5 display different individual blood samples collected from 5 different human donors; N, no treatment; P, P4N-treatment (3 μM). The change in Activin A and BAFF expression (mean of 5 patients) relative to the control (NC) is plotted as a histogram (B) The effect of increasing dosages of P4N for 12 h on mRNA and protein levels of Activin A or BAFF in THP-1 cells was analyzed by RT-PCR and ELISA. (C) The effect of 6 μM P4N on mRNA and protein levels of Activin A or BAFF in THP-1 cells was determined at a different time period. (D) The effect of different inhibitors on Activin A-induced BAFF expression was examined. The expression of BAFF mRNA in inhibitor-treated THP-1 cells was determined by RT-PCR, and (E) BAFF protein secretion was measured by ELISA. (F) The effect of THP-1 conditioned media on the proliferation of Raji cells and OKT3 hybridoma cells were determined. Media were harvested, in which THP-1 cells were pre-treated without inhibitor (2) or with SB431542 (3), A83-01 (4), SIS3 (5), SB203580 (6) or PD98059 (7) and then treated with P4N for 12 h. The results are expressed as % viable cells relative to the control (NC, media from untreated THP-1 cells). All values are the means of triplicate samples±SEM. The significant differences in the results of inhibitor and P4N-treated groups compared with the untreated group are indicated by ***P<0.001.
Cell proliferation assay. Raji or OKT3 cells (1×10^4/well) were seeded and treated with THP-1-conditioned media. After 48 h the number of viable cells was determined by MTT assay. The indices of cell proliferation were calculated as previously described.

## C[C@H](Cc1ccc(OCCN2CCCCC2)c(OCCN2CCCCC2)c1)[C@@H](C)Cc1ccc(OCCN2CCCCC2)c(OCCN2CCCCC2)c1 [P4N, meso-2,3-dimethyl-1,4-bis(3,4-[2-(piperidino)ethoxyphenyl])butane tetrakishydrochloride salt]
CT26 tumors
  growth of CT26 tumors: had no effect
CT-26 cells
  binding affinities of EAA: enhanced their binding affinities
Mouse splenocytes; 48 h
  total B cell proliferation in mouse splenocytes: increased total B cell proliferation
Mouse splenocytes; absence of antigen stimulation
  number of activated B cells: had no effect
[1]; 5 mg/kg P4N once or three times a week with EGFP
  total specific anti-EGFP Ig production: dramatically enhanced
[1]; compared to EGFP immunization
  B cell differentiation to plasma cells: greatly stimulated
[1]; immunization with P4N
  IgG1, IgG2b and IgA production: significantly increased
Raji or OKT3 cells
  proliferation of Raji or OKT3 cells: increased the proliferation
